Tested on: reconstructed Episkin J13 skin model
Assay: Episkin Peeling test (detachment of corneocytes measured by dosage of proteins)
Assay type: cell-based
Conditions: for desquamating efficacy (detachment of corneocytes) compared to 30% glycolic acid reference: 10 min treatment
Protocol: The Episkin Peeling test measures the detachment of corneocytes of the reconstructed Episkin J13 skin model. At this stage of maturation, the epidermis has a well differentiated stratum corneum (SC).
The sample is treated for 10 minutes with the control or test solution. The sample is taken and placed on the wall of a tube; its surface is then washed with a swab. The washing solution is filtered to preserve only the detached corneocytes. Their presence is measured by a dosage of proteins with the BCA Kit (PIERCE no. 23225).
The reference molecule is glycolic acid (AG). This is one of the compounds used in peeling at rates of occasionally up to 70%. It is applied for short times on the order of a few minutes and then neutralised.
The rate of 30% was used because it allows for good response dynamics with a short application time of 10 min.
Three Episkin batches are used for each study (n=3 per batch and per condition).
The evaluation of the raw materials (MP) is carried out by comparing the results of the MP to those obtained with 30% AG. The MP is effective if it reaches the level of the reference.
They were immersed in water. Spiculisporic acid was salified with potassium (KOH).
The dosage of free proteins, measured by DO, is to proportional to the quantity of corneocytes extracted, and thus to desquamation.

O=C(O)CO [AG, glycolic acid, reference compound]
detachment of corneocytes measured by dosage of proteins (FIG. 1) (10%, 30% and 50%): dose-dependent effect

CCCCCCCC(=O)OCC(O)CO (stereo not shown) [GMCY, Glyceryl caprylate]
desquamating efficacy (detachment of corneocytes) compared to 30% glycolic acid reference (5% in water): desquamating efficacy (almost) reaching that of the glycolic acid reference at 30%
desquamating efficacy (detachment of corneocytes) compared to 30% glycolic acid reference (5% in water, listed as glyceryl caprylate): positive, but not significant, desquamation relative to the positive control

CCCCCCCCCCC(C(=O)O)C1(C(=O)O)CCC(=O)O1 (stereo not shown) [Spiculisporic acid K+, 4,5-dicarboxy-4-pentadecanolide]
desquamating efficacy (detachment of corneocytes) compared to 30% glycolic acid reference (1% in water, salified with KOH): no effect on the detachment of corneocytes
desquamating efficacy (detachment of corneocytes) compared to 30% glycolic acid reference (1% in water, salified with KOH, listed as spiculisporic acid): absence of desquamation

O=C(O)CC(O)(CC(=O)O)C(=O)O [citric acid, Citric acid, reference compound]
desquamating efficacy (detachment of corneocytes) compared to 30% glycolic acid reference (10% in water): does not reach the effect of the reference
desquamating efficacy (detachment of corneocytes) compared to 30% glycolic acid reference (30% in water): reaches the efficacy level of the reference

From US10646427B2, “Cosmetic compositions comprising spiculisporic acid and an ester of fatty acid and(poly)glycerol optionally polyoxyalkylenated” (L'OREAL, priority 2013, dated 2020)
